Experimental findings from PubChem BioAssay AID248 (DTP/NCI, 2004) are described below.

Values joined by “and” are separate entries in the source; they are usually repeats but may differ in a detail not shown here. Equal entries are not always repeated. Inconclusive results and toxic doses are left out.

In the test the test system is L1210 leukemia ip in BDF1 mice, survival T/C. The test is described as follows: NCI In Vivo Anticancer Drug Screen. Data for tumor model L1210 Leukemia (intraperitoneal) in B6D2F1 (BDF1) mice. Particulars: endpoint: mean survival time, higher = longer survival. In short, it runs like this: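 Tumor cells were implanted, animals were treated, and survival was followed. The result divides the treated measurement by the vehicle-control measurement.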

Setting [1] is: dose: 100.0 mg/kg/injection, schedule: Q04DX003 (ip), vehicle: Klucel (hydroxypropylcellulose) (HPC).
Where [2] appears, read: dose: 200.0 mg/kg/injection, schedule: Q04DX003 (ip), vehicle: Klucel (hydroxypropylcellulose) (HPC).
Setting [3] is: dose: 400.0 mg/kg/injection, schedule: Q04DX003 (ip), vehicle: Klucel (hydroxypropylcellulose) (HPC).
Where [4] appears, read: dose: 100.0 mg/kg/injection, schedule: Q01DX001 (ip), vehicle: saline.
Setting [5] is: dose: 200.0 mg/kg/injection, schedule: Q01DX001 (ip), vehicle: saline.
The mark [6] stands for this setting: dose: 400.0 mg/kg/injection, schedule: Q01DX001 (ip), vehicle: saline.
Where [7] appears, read: dose: 100.0 mg/kg/injection, schedule: Q01DX001 (ip), vehicle: Klucel (hydroxypropylcellulose) (HPC).
Setting [8] is: dose: 200.0 mg/kg/injection, schedule: Q01DX001 (ip), vehicle: Klucel (hydroxypropylcellulose) (HPC).
Setting [9] is: dose: 50.0 mg/kg/injection, schedule: Q01DX001 (ip), vehicle: carboxymethylcellulose (CMC).
Where [10] appears, read: dose: 100.0 mg/kg/injection, schedule: Q01DX001 (ip), vehicle: carboxymethylcellulose (CMC).
Setting [11] is: dose: 200.0 mg/kg/injection, schedule: Q01DX001 (ip), vehicle: carboxymethylcellulose (CMC).

For `O=C(NCCCl)NC1CCc2ccccc2C1` (centres undefined), the T/C under setting [1] was 93 % of control, the T/C under setting [2] is 88 % of control and the T/C under setting [3] is 89 % of control.

For the molecule `CS(=O)(=O)OCCN(CCOS(C)(=O)=O)c1ccc(C(=O)O)cc1`, the T/C is, setting by setting: (dose: 42.0 mg/kg/injection, schedule: Q01DX015 (ip), vehicle: other) 108 % of control; (dose: 50.0 mg/kg/injection, schedule: Q01DX001 (ip), vehicle: other) 115 % of control; (dose: 66.0 mg/kg/injection, schedule: Q01DX015 (ip), vehicle: saline) 120 % of control; (dose: 72.0 mg/kg/injection, schedule: Q01DX015 (ip), vehicle: other) 121 % of control; (dose: 100.0 mg/kg/injection, schedule: Q01DX001 (ip), vehicle: other) 115 % of control; (dose: 100.0 mg/kg/injection, schedule: Q01DX015 (ip), vehicle: saline) 122 % of control. Besides, the T/C (dose: 120.0 mg/kg/injection, schedule: Q01DX015 (ip), vehicle: other) was 116 % of control; the T/C (dose: 150.0 mg/kg/injection, schedule: Q01DX015 (ip), vehicle: saline) is 117 % of control; the T/C (dose: 177.0 mg/kg/injection, schedule: Q01DX001 (ip), vehicle: other) is 118 % of control; the T/C (dose: 177.0 mg/kg/injection, schedule: Q01DX001 (ip), vehicle: saline) is 117 % of control; the T/C (dose: 177.0 mg/kg/injection, schedule: Q01DX015 (ip), vehicle: other) was 93 % of control; the T/C (dose: 220.0 mg/kg/injection, schedule: Q01DX015 (ip), vehicle: saline) is 86 % of control. The T/C reads like this: (dose: 267.0 mg/kg/injection, schedule: Q01DX001 (ip), vehicle: other) 118 % of control; (dose: 267.0 mg/kg/injection, schedule: Q01DX001 (ip), vehicle: saline) 110 % of control.

Take `CC1NC(=S)N(c2ccc(S(=O)(=O)c3ccc(N4C(=O)C(C)NC4=S)cc3)cc2)C1=O` (centres undefined): the T/C was 102 % of control under setting [4], 98 % of control under setting [5] and 98 % of control under setting [6].

Consider `N#C/C(=C/c1ccnc2ccccc12)c1ccccc1`, for which the T/C was 101 % of control under setting [1], 101 % of control under setting [2] and 95 % of control under setting [3].

On to `Cc1ccc(C(=O)c2sc(Nc3cccc(C(F)(F)F)c3)c(C#N)c2N)c(C)c1`, for which the T/C was 95 % of control (dose: 100.0 mg/kg/injection, schedule: Q04DX002 (ip), vehicle: saline with Tween-80); 87 % of control (dose: 200.0 mg/kg/injection, schedule: Q04DX002 (ip), vehicle: saline with Tween-80); 91 % of control (dose: 400.0 mg/kg/injection, schedule: Q04DX002 (ip), vehicle: saline with Tween-80).

On to `Cc1ccc2nc3nc(-c4ccccc4)c(-c4ccccc4)nc3nc2c1`, for which the T/C by setting is: (dose: 75.0 mg/kg/injection, schedule: Q01DX001 (ip), vehicle: other) 93 % of control; (dose: 150.0 mg/kg/injection, schedule: Q01DX001 (ip), vehicle: other) 94 % of control; (dose: 300.0 mg/kg/injection, schedule: Q01DX001 (ip), vehicle: other) 89 % of control.

With `Brc1ccc(/C=N/Nc2nnc(N/N=C/c3ccc(Br)cc3)c3ccccc23)cc1`, the T/C is, setting by setting: (dose: 50.0 mg/kg/injection, schedule: Q01DX001 (ip), vehicle: saline) 93 % of control; under setting [4], 96 % of control; under setting [5], 102 % of control; under setting [6], 102 % of control.

Take `CC12CCC(O)CC1CCC1C2CCC2(C)C(C(=O)O)CCC12` (centres undefined): the T/C reads like this: (dose: 100.0 mg/kg/injection, schedule: Q04DX002 (ip), vehicle: gum acacia) 99 % of control; (dose: 200.0 mg/kg/injection, schedule: Q04DX002 (ip), vehicle: gum acacia) 86 % of control; (dose: 400.0 mg/kg/injection, schedule: Q04DX002 (ip), vehicle: gum acacia) 89 % of control.

In the case of `CC(C)(COC(=O)c1ccccc1)COC(=O)c1ccccc1`, the T/C was 116 % of control (dose: 100.0 mg/kg/injection, schedule: Q01DX009 (ip), vehicle: Klucel (hydroxypropylcellulose) (HPC)); 96 % of control under setting [1]; 93 % of control (dose: 200.0 mg/kg/injection, schedule: Q01DX009 (ip), vehicle: Klucel (hydroxypropylcellulose) (HPC)); 107 % of control under setting [2]; 93 % of control (dose: 400.0 mg/kg/injection, schedule: Q01DX009 (ip), vehicle: Klucel (hydroxypropylcellulose) (HPC)); 98 % of control under setting [3].

As for `COc1ccccc1-n1c(O)c(N=Nc2ccc(Cl)cc2)c(=O)n(-c2ccccc2OC)c1=S`, the T/C under setting [7] was 104 % of control and the T/C under setting [8] was 110 % of control.

Regarding `CC[n+]1cccc(-c2ccc(NC(=O)/C=C/c3ccc(C(=O)Nc4ccc(-c5ccc[n+](CC)c5)cc4)cc3)cc2)c1`, the T/C runs as follows: (dose: 7.1 mg/kg/injection, schedule: Q01DX001 (ip), vehicle: carboxymethylcellulose (CMC)) 118 % of control; (dose: 12.5 mg/kg/injection, schedule: Q01DX Z (ip), vehicle: carboxymethylcellulose (CMC)) 241 % of control; (dose: 25.0 mg/kg/injection, schedule: Q01DX001 (ip), vehicle: carboxymethylcellulose (CMC)) 152 % of control and 157 % of control; (dose: 25.0 mg/kg/injection, schedule: Q01DX Z (ip), vehicle: carboxymethylcellulose (CMC)) 211 % of control; under setting [9], 202 % of control; (dose: 50.0 mg/kg/injection, schedule: Q01DX Z (ip), vehicle: carboxymethylcellulose (CMC)) 164 % of control. Besides, the T/C was 238 % of control under setting [10]; 263 % of control under setting [11]; 120 % of control (dose: 300.0 mg/kg/injection, schedule: Q01DX001 (ip), vehicle: carboxymethylcellulose (CMC)); 124 % of control (dose: 450.0 mg/kg/injection, schedule: Q01DX001 (ip), vehicle: carboxymethylcellulose (CMC)); 107 % of control (dose: 675.0 mg/kg/injection, schedule: Q01DX001 (ip), vehicle: carboxymethylcellulose (CMC)).

With `CCCC(NC(=O)OCC)NC(=O)OCC`, the T/C is 95 % of control under setting [9]; 92 % of control under setting [10]; 90 % of control under setting [11]; 92 % of control (dose: 400.0 mg/kg/injection, schedule: Q01DX001 (ip), vehicle: carboxymethylcellulose (CMC)).

Regarding `O=C1/C(=C/c2ccc(Cl)cc2)CCc2ccccc21`, the T/C runs as follows: under setting [4], 101 % of control; (dose: 100.0 mg/kg/injection, schedule: Q01DX009 (ip), vehicle: saline) 97 % of control; under setting [5], 101 % of control; (dose: 200.0 mg/kg/injection, schedule: Q01DX009 (ip), vehicle: saline) 96 % of control; under setting [6], 97 % of control; (dose: 400.0 mg/kg/injection, schedule: Q01DX009 (ip), vehicle: saline) 86 % of control.

For `CCCC(O)C1CCCCC1O` (centres undefined), the T/C was 113 % of control (dose: 100.0 mg/kg/injection, schedule: Q04DX003 (ip), vehicle: saline with Tween-80); 100 % of control (dose: 200.0 mg/kg/injection, schedule: Q04DX003 (ip), vehicle: saline with Tween-80); 103 % of control (dose: 400.0 mg/kg/injection, schedule: Q04DX003 (ip), vehicle: saline with Tween-80).

On to `CCC(Cl)COP(=O)(OCC(Cl)CC)C(CC)P(=O)(OCC(Cl)CC)OCC(Cl)CC` (centres undefined), for which the T/C by setting is: (dose: 100.0 mg/kg/injection, schedule: Q04DX003 (ip), vehicle: saline) 91 % of control; (dose: 200.0 mg/kg/injection, schedule: Q04DX003 (ip), vehicle: saline) 95 % of control; (dose: 400.0 mg/kg/injection, schedule: Q04DX003 (ip), vehicle: saline) 93 % of control.

Take `Cc1cc(C2C(O)C(c3cc(C)on3)C2(C)O)no1` (centres undefined): the T/C by setting is: under setting [7], 98 % of control; under setting [1], 103 % of control; under setting [8], 98 % of control; under setting [2], 97 % of control; (dose: 400.0 mg/kg/injection, schedule: Q01DX001 (ip), vehicle: Klucel (hydroxypropylcellulose) (HPC)) 97 % of control; under setting [3], 103 % of control.

Regarding `CCN(CC)C(=O)Nc1cccc(OC(=O)N(C)C)c1`, the T/C was 87 % of control (dose: 100.0 mg/kg/injection, schedule: Q01DX009 (ip), vehicle: saline with Tween-80) and 89 % of control (dose: 200.0 mg/kg/injection, schedule: Q01DX009 (ip), vehicle: saline with Tween-80).
